Columns and labels:
Format in all cases: cell-based
A431 (EGFR-WT) = assay: Proliferation experiment, A431 cell line (CellTiter-Glo); settings: Homo sapiens, A-431; A431 cells, cultured for 72 hrs with compound, CTG analysis
Protocol: [The procedure below names another cell line; the source lists this cell line under the same test.] (§1) Proliferation Experiment of Ba/F3 Cell Line
(§2) (I) Reagents and Materials
(§3) • Fetal bovine serum FBS (GBICO, Cat #10099-141); • CellTiter-Glo® luminescent cell viability assay kit (Promega, Cat #G7572); • Black transparent flat-bottom 96 well plate (Corning®, Cat #3603). (II) Instruments • SpectraMax multi-label microplate reader MD, 2104-0010A; • Carbon dioxide incubator, Thermo Scientific 3100 series; • Biological safety cabinet, Thermo Scientific, 1300 series model A2; • Inverted microscope, Olympus, CKX41SF; • Siemens refrigerator KK25E76TI. (III) Cell Lines and Culture Conditions
(§4) (IV) Experimental Procedures 1. Cell Culture and Inoculation: • (1) Cells in the logarithmic growth phase were harvested and counted using a […]. Cell viability was detected by Trypan Blue Dye Exclusion Method to ensure cell viability above 90%. • (2) The cell concentration was adjusted to reach a desired final density; 90 μL of cell suspension was added to the 96-well plate. • (3) The cells were incubated overnight in the 96-well plate at 37° C., 5% CO2 and at 95% humidity.
(§5) 2. T0 Reference Data: • (1) 10 μL PBS was added to each well of the TO plate containing the cells. • (2) The CTG reagent was thawed and the cell plate was equilibrated to room temperature for 30 min. • (3) An equal volume of CTG solution was added to each well. • (4) The cells were lysed by shaking on an orbital shaker for 5 min. • (5) The cell plate was left at room temperature for 20 min to stabilize the luminescence signal. • (6) The fluorescence signal values of TO were read. 3. Dilution and Addition of Compounds • (1) According to the compound information table, a corresponding volume of DMSO was added to the corresponding compound powder to prepare a 10 mM stock solution. • (2) A 1000-fold, 3.16-fold-diluted compound solution was prepared. • (3) The 1000× diluted compound solution was diluted 100-fold with PBS to prepare a 10-fold compound solution with a maximum concentration of […], including 9 concentrations, with 3.16-fold dilution, and 10 μL of the medicament solution was added to each well of the 96-well plate to seed the cells. Triplicate wells were set for each compound concentration, with a final concentration of DMSO being 0.1%. • (4) The cells were placed in the 96-well plate filled with the medicament at 37° C., 5% CO2 and at 95% humidity, and cultured for 72 hrs before CTG analysis. 4. Fluorescence Signal Reading • (1) The CTG reagent was thawed and the cell plate was equilibrated to room temperature for 30 min. • (2) An equal volume of CTG solution was added to each well. • (3) The cells were lysed by shaking on an orbital shaker for 5 min. • (4) The cell plate was left at room temperature for 20 min to stabilize the fluorescence signal. • (5) The fluorescence values were read. 5. Data Processing
(§6) Data were analyzed using GraphPad Prism 7.0 software and fitted data were regressed using non-linear S-curves to obtain dose-response curves from which IC50 values (in nM) were calculated.

[1] = target: Ba/F3 EGFR-D770-N771ins_SVD (Homo sapiens, UniProt P00533, DUP768-770, cells depend on it); assay: Proliferation experiment of Ba/F3 cell line, EGFR-D770-N771ins_SVD (CellTiter-Glo); settings: cultured for 72 hrs with compound, CTG analysis, read-out: Ba/F3 EGFR-D770-N771ins_SVD IC50
Chain of Ba/F3 EGFR-D770-N771ins_SVD (P00533 with tags, fused parts or gaps DUP768-770): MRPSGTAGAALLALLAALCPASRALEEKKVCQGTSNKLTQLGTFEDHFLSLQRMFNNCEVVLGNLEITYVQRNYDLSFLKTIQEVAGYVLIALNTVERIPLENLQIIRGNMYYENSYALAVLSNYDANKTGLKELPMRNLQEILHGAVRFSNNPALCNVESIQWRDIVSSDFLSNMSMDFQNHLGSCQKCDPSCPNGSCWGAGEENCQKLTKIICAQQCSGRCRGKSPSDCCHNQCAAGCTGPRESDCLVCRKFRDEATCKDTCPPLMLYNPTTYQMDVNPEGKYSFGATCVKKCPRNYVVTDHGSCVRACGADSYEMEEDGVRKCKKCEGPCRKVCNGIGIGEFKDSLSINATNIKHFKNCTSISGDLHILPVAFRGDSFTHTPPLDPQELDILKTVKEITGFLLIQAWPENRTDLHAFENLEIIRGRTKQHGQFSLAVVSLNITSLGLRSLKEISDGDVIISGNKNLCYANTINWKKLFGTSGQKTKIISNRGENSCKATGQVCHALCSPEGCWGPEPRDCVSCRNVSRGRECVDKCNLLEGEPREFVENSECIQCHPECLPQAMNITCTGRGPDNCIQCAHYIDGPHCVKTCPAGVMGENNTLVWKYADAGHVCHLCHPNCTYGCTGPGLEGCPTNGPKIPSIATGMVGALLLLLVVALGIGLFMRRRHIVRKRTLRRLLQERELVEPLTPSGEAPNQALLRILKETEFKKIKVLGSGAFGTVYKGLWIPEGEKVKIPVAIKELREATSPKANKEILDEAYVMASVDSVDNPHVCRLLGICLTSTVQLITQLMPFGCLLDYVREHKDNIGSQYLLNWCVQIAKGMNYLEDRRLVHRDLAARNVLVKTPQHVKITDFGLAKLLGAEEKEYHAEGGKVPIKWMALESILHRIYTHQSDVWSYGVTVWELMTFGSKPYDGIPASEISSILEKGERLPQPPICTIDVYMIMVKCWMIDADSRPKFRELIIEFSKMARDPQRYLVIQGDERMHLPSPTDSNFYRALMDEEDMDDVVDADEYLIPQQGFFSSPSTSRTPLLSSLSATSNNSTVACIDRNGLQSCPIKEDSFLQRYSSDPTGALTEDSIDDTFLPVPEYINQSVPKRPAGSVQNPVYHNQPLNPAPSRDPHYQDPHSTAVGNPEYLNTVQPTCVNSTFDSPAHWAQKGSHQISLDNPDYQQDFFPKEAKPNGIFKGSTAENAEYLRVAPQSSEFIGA
Protocol: as §1, §2, §3, §4, §5, §6

[2] = target: Ba/F3 EGFR-V769_D770insASV (Homo sapiens, UniProt P00533, DUP767-769, cells depend on it); assay: Proliferation experiment of Ba/F3 cell line, EGFR-V769_D770insASV (CellTiter-Glo); settings: cultured for 72 hrs with compound, CTG analysis, read-out: Ba/F3 EGFR-V769_D770insASV IC50
Chain of Ba/F3 EGFR-V769_D770insASV (P00533 with tags, fused parts or gaps DUP767-769): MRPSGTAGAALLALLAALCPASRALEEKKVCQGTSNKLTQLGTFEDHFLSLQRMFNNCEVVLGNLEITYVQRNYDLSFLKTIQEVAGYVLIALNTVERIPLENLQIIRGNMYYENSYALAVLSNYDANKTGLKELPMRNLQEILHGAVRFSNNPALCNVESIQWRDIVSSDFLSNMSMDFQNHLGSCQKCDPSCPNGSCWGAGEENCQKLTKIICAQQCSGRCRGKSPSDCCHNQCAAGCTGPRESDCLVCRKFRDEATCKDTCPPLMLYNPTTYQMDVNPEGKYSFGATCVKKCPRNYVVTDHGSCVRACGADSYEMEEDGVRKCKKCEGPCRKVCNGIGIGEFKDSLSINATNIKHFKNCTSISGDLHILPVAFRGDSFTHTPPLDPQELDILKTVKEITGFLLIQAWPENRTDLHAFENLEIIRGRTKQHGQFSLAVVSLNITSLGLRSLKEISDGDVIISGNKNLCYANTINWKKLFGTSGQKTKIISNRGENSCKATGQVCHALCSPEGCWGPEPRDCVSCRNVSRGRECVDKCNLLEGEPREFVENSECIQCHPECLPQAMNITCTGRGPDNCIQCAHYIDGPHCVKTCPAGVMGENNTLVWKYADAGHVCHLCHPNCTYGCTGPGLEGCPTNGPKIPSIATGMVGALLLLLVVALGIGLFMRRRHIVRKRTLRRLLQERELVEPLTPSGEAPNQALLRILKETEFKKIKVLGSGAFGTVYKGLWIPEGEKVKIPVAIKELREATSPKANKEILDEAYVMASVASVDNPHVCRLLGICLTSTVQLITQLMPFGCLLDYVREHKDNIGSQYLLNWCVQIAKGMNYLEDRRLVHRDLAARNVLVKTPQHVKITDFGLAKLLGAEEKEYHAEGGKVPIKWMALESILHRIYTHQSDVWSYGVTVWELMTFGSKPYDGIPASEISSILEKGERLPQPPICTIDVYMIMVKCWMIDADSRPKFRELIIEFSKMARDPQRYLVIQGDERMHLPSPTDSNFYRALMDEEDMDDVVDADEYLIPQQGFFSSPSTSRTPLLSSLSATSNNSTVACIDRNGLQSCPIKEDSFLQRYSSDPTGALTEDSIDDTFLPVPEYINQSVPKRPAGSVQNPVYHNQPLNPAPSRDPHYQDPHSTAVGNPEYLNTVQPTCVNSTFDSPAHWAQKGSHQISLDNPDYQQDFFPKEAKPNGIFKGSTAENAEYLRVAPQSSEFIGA
Protocol: as §1, §2, §3, §4, §5, §6

SMILES | IC50 (A431 (EGFR-WT)) | GI50 [1] | GI50 [2]
C=CC(=O)Nc1cc2c(Nc3cccc(-c4c(F)cccc4F)c3)ncnc2cc1OCCCN1CCN(CC)CC1 [Example 28, N-(4-((2′,6′-difluoro-[1,1′-biphenyl]-3-yl)amino)-7-(3-(4-ethylpiperazin-1-yl)propoxy)quinazolin-6-yl)acrylamide] | 362 nM | 22.6 nM | 21 nM
C=CC(=O)Nc1cc2c(Nc3cccc(-c4c(F)cccc4F)c3)ncnc2cc1OCCCN1CCN(C2CC2)CC1 [Example 29, N-(7-(3-(4-cyclopropylpiperazin-1-yl)propoxy)-4-((2′,6′-difluoro-[1,1′-biphenyl]-3-yl)amino)quinazolin-6-yl)acrylamide] | 51.8 nM | 37 nM | 44.6 nM
C=CC(=O)Nc1cc2c(Nc3cccc(-c4c(F)cccc4F)c3)ncnc2cc1OCCCN1CCN(C2COC2)CC1 [Example 30, N-(4-((2′,6′-difluoro-[1,1′-biphenyl]-3-yl)amino)-7-(3-(4-(oxetan-3-yl)piperazin-1-yl)propoxy)quinazolin-6-yl)acrylamide] | 68.1 nM | 25.3 nM | 54.1 nM
C=CC(=O)Nc1cc2c(Nc3cccc(-c4c(F)cccc4F)c3)ncnc2cc1OCCCN1CCN(CC(F)(F)F)CC1 [Example 31, N-(4-((2′,6′-difluoro-[1,1′-biphenyl]-3-yl)amino)-7-(3-(4-(2,2,2-trifluoroethyl)piperazin-1-yl)propoxy)quinazolin-6-yl)acrylamide] | 225 nM | 68.2 nM | 111 nM
C=CC(=O)Nc1cc2c(Nc3cccc(-c4c(F)cccc4F)c3)ncnc2cc1OCCCN1CCN(C)C(=O)C1 [Example 32, N-(4-((2′,6′-difluoro-[1,1′-biphenyl]-3-yl)amino)-7-(3-(4-methyl-3-oxopiperazin-1-yl)propoxy)quinazolin-6-yl)acrylamide] | 205 nM | 35.9 nM | 86.3 nM
C=CC(=O)Nc1cc2c(Nc3cccc(-c4c(F)cccc4F)c3)ncnc2cc1OCCCN1CCN(C)CC1=O [Example 33, N-(4-((2′,6′-difluoro-[1,1′-biphenyl]-3-yl)amino)-7-(3-(4-methyl-2-oxopiperazin-1-yl)propoxy)quinazolin-6-yl)acrylamide] | 458 nM | 38.3 nM | 68.3 nM
C=CC(=O)Nc1cc2c(Nc3cccc(-c4c(F)cccc4F)c3)ncnc2cc1OCCCN1CC[C@@H](N(C)C)C1 [Example 34, (R)-N-(4-((2′,6′-difluoro-[1,1′-biphenyl]-3-yl)amino)-7-(3-(3-(dimethylamino)pyrrolidin-1-yl)propoxy)quinazolin-6-yl)acrylamide] | 260 nM | 21.5 nM | 33.1 nM
C=CC(=O)Nc1cc2c(Nc3cccc(-c4c(F)cccc4F)c3)ncnc2cc1OCCCN1CC[C@H](N(C)C)C1 [Example 35, (S)-N-(4-((2′,6′-difluoro-[1,1′-biphenyl]-3-yl)amino)-7-(3-(3-(dimethylamino)pyrrolidin-1-yl)propoxy)quinazolin-6-yl)acrylamide] | 193 nM | 26.8 nM | 35.6 nM
C=CC(=O)Nc1cc2c(Nc3cccc(-c4c(F)cccc4F)c3)ncnc2cc1OCCCN1CC(N(C)C)C1 [Example 36, N-(4-((2′,6′-difluoro-[1,1′-biphenyl]-3-yl)amino)-7-(3-(3-(dimethylamino)azetidin-1-yl)propoxy)quinazolin-6-yl)acrylamide] | 235 nM | 32.3 nM | 68.6 nM
C=CC(=O)Nc1cc2c(Nc3cccc(-c4c(F)cccc4F)c3)ncnc2cc1O[C@@H]1CCN(C)C1 [Example 37, (R)-N-(4-((2′,6′-difluoro-[1,1′-biphenyl]-3-yl)amino)-7-((1-methylpyrrolidin-3-yl)oxy)quinazolin-6-yl)acrylamide] | 302 nM | 31.6 nM | 47.5 nM
C=CC(=O)Nc1cc2c(Nc3ccc(F)c(-c4ccccc4F)c3)ncnc2cc1OCCCN1CCOCC1 [Example 38, N-(4-((2′,6-difluoro-[1,1′-biphenyl]-3-yl)amino)-7-(3-morpholinopropoxy)quinazolin-6-yl)acrylamide] | 431 nM | 23.6 nM | 31.5 nM
C=CC(=O)Nc1cc2c(Nc3ccc(F)c(-c4ccccc4F)c3)ncnc2cc1OCCCN1CCN(C)CC1 [Example 39, N-(4-((2′,6-difluoro-[1,1′-biphenyl]-3-yl)amino)-7-(3-(4-methylpiperazin-1-yl)propoxy)quinazolin-6-yl)acrylamide] | 271 nM | 18 nM | 25.6 nM
C=CC(=O)Nc1cc2c(Nc3ccc(F)c(-c4c(F)cccc4F)c3)ncnc2cc1OCCCN1CCN(C)CC1 [Example 40, N-(7-(3-(4-methylpiperazin-1-yl)propoxy)-4-((2′,6,6′-trifluoro-[1,1′-biphenyl]-3-yl)amino)quinazolin-6-yl)acrylamide] | 372 nM | 15 nM | 25.4 nM
C=CC(=O)Nc1cc2c(Nc3ccc(F)c(-c4ccc(F)cc4)c3)ncnc2cc1OCCCN1CCOCC1 [Example 41, N-(4-((4′,6-difluoro-[1,1′-biphenyl]-3-yl)amino)-7-(3-morpholinopropoxy)quinazolin-6-yl)acrylamide] | 927 nM | 19.2 nM | 36.5 nM
C=CC(=O)Nc1cc2c(Nc3ccc(F)c(-c4ccc(F)cc4)c3)ncnc2cc1OCCCN1CCN(C)CC1 [Example 42, N-(4-((4′,6-difluoro-[1,1′-biphenyl]-3-yl)amino)-7-(3-(4-methylpiperazin-1-yl)propoxy)quinazolin-6-yl)acrylamide] | 287 nM | 31.8 nM | 55.6 nM
C=CC(=O)Nc1cc2c(Nc3ccc(F)c(-c4ncccc4F)c3)ncnc2cc1OCCCN1CCN(C)CC1 [Example 43, N-(4-((4-fluoro-3-(3-fluoropyridin-2-yl)phenyl)amino)-7-(3-(4-methylpiperazin-1-yl)propoxy)quinazolin-6-yl)acrylamide] | 284 nM | 27.8 nM | 49.3 nM
C=CC(=O)Nc1cc2c(Nc3cccc(-c4ncccc4F)c3)ncnc2cc1OCCCN1CCN(C)CC1 [Example 44, N-(4-((3-(3-fluoropyridin-2-yl)phenyl)amino)-7-(3-(4-methylpiperazin-1-yl)propoxy)quinazolin-6-yl)acrylamide] | 83 nM | 13.9 nM | 29.3 nM
C=CC(=O)Nc1cc2c(Nc3cccc(-c4ccccc4F)c3)ncnc2cc1OCCCN1CCOCC1 [Example 45, N-(4-((2′-fluoro-[1,1′-biphenyl]-3-yl)amino)-7-(3-morpholinopropoxy)quinazolin-6-yl)acrylamide] | 66 nM | 17 nM | 27 nM
C=CC(=O)Nc1cc2c(Nc3cccc(-c4ccccc4F)c3)ncnc2cc1OCCCN1CCN(C)CC1 [Example 46, N-(4-((2′-fluoro-[1,1′-biphenyl]-3-yl)amino)-7-(3-(4-methylpiperazin-1-yl)propoxy)quinazolin-6-yl)acrylamide] | 120 nM | 11.9 nM | 15.8 nM
C=CC(=O)Nc1cc2c(Nc3ccc(F)c(-c4ccccc4)c3)ncnc2cc1OCCCN1CCOCC1 [Example 47, N-(4-((6-fluoro-[1,1′-biphenyl]-3-yl)amino)-7-(3-morpholinopropoxy)quinazolin-6-yl)acrylamide] | 190 nM | 29.5 nM | 41.4 nM

From US12649727B2, “EFGR inhibitor, preparation method therefor and application thereof” (Abbisko Therapeutics Co., Ltd, priority 2020, dated 2026)
